Results: paper PMC11955804, “Histidine-rich enantiomeric peptide coacervates enhance antigen sequestration and presentation to T cells” (Chemical Science, 2025)
Blank lines part the entries; values can stand above or below the compound they belong to.

Experiments:
[1] = system: BMDCs overlaid with DOBW cells; test: In vitro antigen presentation assay, MHC class II (BMDCs + DOBW hybridoma, IL-2 ELISA); details: BMDCs pre-treated 1 h: Chlorpromazine 30 µM, Dynasore 50 µM, Wortmannin 10 µM, Methyl β-CD 2 mM; OVA-loaded coacervates; DOBW overlay 16 h
Description: To test internalization mechanisms, we utilized in vitro antigen presentation assays (Fig. 4A). Here, bone marrow-derived dendritic cells (BMDCs) are treated with coacervates loaded with the model antigen ovalbumin (OVA). […] Secretion of IL-2 in response to peptide-MHC recognition is an indirect measure of coacervate uptake and can be quantified using ELISA (enzyme-linked immunosorbent assay) (Fig. 4A). […] We next used pharmacological inhibitors of endocytic mechanisms to explore mechanisms of cell entry (Fig. 4E). BMDCs were treated with inhibitors of clathrin-mediated endocytosis (chlorpromazine, CPZ),[58] dynamin-dependent endocytosis (dynasore, Dyn),[59] macropinocytosis (wortmannin, Wort),[60] cholesterol (methyl β-CD),[61] and IPA3 the regulatory domain of PAK1 (IPA-3)[62] for one h prior to antigen presentation assays.
Uptake of coacervates by BMDCs was measured using in vitro antigen presentation assays.
BMDCs were plated in 96-well round-bottom plates (1×10^5 cells/well) and maintained at 4°C or
treated with 10 mM deoxy glucose and 10 mM sodium azide in PBS (ATP depletion) for 1 h prior
to addition of OVA-loaded coacervates. Final OVA concentration was 1 g/mL for time-
dependent measurements and 10 g/mL for comparison between enantiomers. Cells maintained at
37°C and complete RPMI media served as controls. Soluble OVA and PBS treated cells were used as controls for antigen delivery. Following treatment (2 h, 4 h, 24 h, 48 h, or 72 h), BMDCs were
washed to remove extracellular coacervates and DOBW hybridoma cells (1:5, DC: DOBW) were
overlaid for 16 h. The cells were then centrifuged at 300 × g for 5 min, and the supernatant was
collected for IL-2 quantitation by ELISA according to the manufacturer protocol (Biotechne,
#DY402). The amount of IL-2 produced under each condition was measured.
Inhibition of coacervate uptake was measured by adding the inhibitors 1 h
prior to coacervate treatment for 24 h followed by hybridoma overlay and IL-2 measurements.

[2] = system: DCs; test: DQ-OVA delivery to lysosomes (fluorescence microscopy); type: cell-based, mouse; details: DCs treated with DQ-OVA coacervates
Description: page 13: Flow cytometry The transfected A549 cells were washed with FACS wash buffer (FWB; 1× PBS with 10% […] Cells were washed again with FWB and then resuspended in 100 µl of PBS with eBioscience™ Fixable Viability Dye eFluor™ 506 antibody. The staining was quenched with FWB following a 20 min incubation. The cells were centrifuged, washed 2× times with FWB, and resuspended in 100 µl FWB with CD55 (DAF) Antibody (anti-human; miltenyibiotec Cat#130-126-382). After 20 min, staining was quenched, cells washed twice and resuspended in 200 µl FWB for acquisition. Single-stained cells stained with eFluor™ 506, CD55 (DAF) Antibody, were used as compensation controls. Samples were acquired using an Agilent NovoCyte 3000 flow cytometer. Data were analyzed with FlowJo version 10. […] was quantified as the percentage CD55+ cells, considering untreated cells as the negative control and Lipofectamine treated ones as the positive control. Antigen delivery to lysosomes and inhibitor effects DC 2.4 cells were cultured in RPMI-1640 (Catalog number: 11875093) medium supplemented with 10% FBS, 100 U/mL penicillin, 100 μg/mL streptomycin, and 1 mM sodium pyruvate. Cells were plated in 8-well chamber slides (5000 cells in 200 μL of media) and incubated for 24 h prior to addition of DQ-OVA loaded coacervates for 2 h, 6 h, or 24 h (final DQ-OVA concentration was 2.5 μg/mL). Cells treated with PBS or soluble OVA served as controls. Cells were then washed and fixed using 4% Paraformaldehyde (PFA) for 15 min at RT and permeabilized with 0.1% Triton X-100 for 5 min prior to nuclear staining with Hoechst stain (Catalog number: 62249, Thermo Fischer Scientific; 10 μg/mL). Cells were imaged (60×) on Lionheart FX automated microscope (BioTek Instruments, Inc.) with controlled exposure S13 page 14: parameters across two channels: eGFP and DAPI.

[3] = system: BMDCs overlaid with OVA1.3 hybridoma cells; test: In vitro antigen presentation assay, MHC class I (BMDCs + OVA1.3 hybridoma, IL-2 ELISA); type: cell-based, mouse; details: inhibitor 30 min before coacervates, Bortezomib 10 nM, Brefeldin A 17.8 µM, Lactacystin 50 µM
Excerpt: parameters across two channels: eGFP and DAPI. Images were captured for each time point (2, 6, […]
deconvoluted using Gen 5 software overlaid to visualize localization. To test the effect of […]
T cell proliferation and functional cytokine production […]
at 1×10^8 cells/mL in EasySep Buffer.

[4] = Optical microscopy of coacervate formation (LLPS); type: physicochemical
Excerpt: NaCl) was used to study ionic strength effects. The absorbance was further converted to turbidity using methods previously described 1 and data was plotted as relative turbidity.
Optical microscopy and dynamic light scattering (DLS)
Droplets were visualized in 1×PBS using NCI Leica DMC4500 microscope in reflection mode with differential interference contrast. Images were captured with a DMC4500 camera under the control of Leica LAS X software (version 3.4.2). […]

[5] = Encapsulation efficiency measurement; type: physicochemical; details: 1 mM peptide, 1 µM eGFP in PBS; centrifuged 15,000 × g 10 min; fluorescence of supernatant (λex 395 nm, λem 510 nm)
Description: Encapsulation efficiency measurements […]
powders to a final peptide concentration of 1 mM. Cargo concentrations in the stock solutions […]
nm and λem: 519 nm). For small molecule dyes, similar methods were used. The encapsulation efficiency was determined as reported previously 12.
Cellular uptake and antigen presentation assays […]
to addition of OVA-loaded coacervates. Final OVA concentration was 1 µg/mL for time- […]
37°C and complete RPMI media served as controls. Soluble OVA and PBS treated cells were used as controls for antigen delivery.

[6] = Dynamic light scattering (DLS) droplet size; type: physicochemical; details: 1 mM peptide, 1× PBS, pH 7.4; mean of 3 measurements with 14 scans each; identical for each pair of enantiomers
Description: Optical microscopy and dynamic light scattering (DLS) […]
Coacervate size was measured using 1 mM
peptide solutions (1×PBS, pH 7.4) on a ZEN 3600 Zetasizer (Malvern Instruments, UK) using
DLS-Zen 0040 specialized cuvettes. The results were reported as the means of three
measurements, with 14 scans for each measurement. […]

[7] = Critical concentration (Ccrit) of coacervate formation; type: physicochemical; details: 1× PBS, pH 7.4; enantiomeric variants identical
Excerpt: (§1) Peptide synthesis and purification
(§2) The L- and D-enantiomers of (GHGLY)4, (GHGVY)4 and (GHGPY)4 peptides were purchased from GenScript and used without further modification. (GHGAY)4, (GHGFY)4, (GHGIY)4 and (GHGNY)4 were synthesized using standard Fmoc-SPPS chemistry on Rink Amide with Oxyma (Ethyl cyano(hydroxyimino) acetate) and N, N′-diisopropylcarbodiimide (DIC) as coupling agents on a Liberty Blue microwave-assisted synthesizer. Peptides were cleaved using a cocktail of trifluoroacetic acid (TFA), tri-isopropyl silane (TIS), and H2O (95:2.5:2.5) and extracted and washed in cold diethyl ether. The resulting pellet was dissolved in acetonitrile/water mixture (50:50) and frozen prior to lyophilization. Peptides were purified (~90%) using High Performance Liquid Chromatography (HPLC) on a Dionex Ultimate 3000 HPLC equipped with a diode-array detector on an Agilent Poroshell RP-C18 column (4.6 mm×150 mm), operating at a flow rate of 1 mL/min. Peaks corresponding to 220 nm were collected for MALDI -TOF mass analysis (Shimadzu MALDI-8030) using α-cyno-4-hydroxycinnamic acid matrix (Bruker Daltonics, MA).
(§3) Peptide solutions (0.25–1.5 mM) were prepared in 1×PBS at pH 7.4. Aliquots (140 µL) were pipetted into a 96-well plate and absorbance at 600 nm was measured over 24 h using a Synergy HT plate reader (Biotek, USA) at RT or 37°C with or without agitation. The pH dependence of LLPS formation was assessed in 0.1 M potassium phosphate buffer (with 150 mM NaCl) at different pH values (5.8, 6.6, 7.4, 8.0) and 1 mM peptide concentration. Similarly, 0.1 M potassium phosphate buffer (pH 7.4) with varying salt concent rations (0, 150, 250, 500, 1000 mM […]
Figure S10. Determination of Ccrit for (a) (GHGLY)4, (b) (GHGVY)4, (c) (GHGPY)4 and (d-f) their corresponding enantiomers (1 mM, 1× PBS, pH 7.4).
Table S1. Measured Ccrit values for (GHGXY)4 peptides used in this study.
(1 picture or pasted object on this page, not shown here)

[8] = Turbidity assay of LLPS; type: physicochemical; details: 1× PBS pH 7.4, absorbance at 600 nm over 24 h, plate reader
Excerpt: as §1
as §2, with “Peaks corresponding to 220 nm were collected for MALDI -TOF mass analysis (Shimadzu MALDI-8030) using α-cyno-4-hydroxycinnamic acid matrix (Bruker Daltonics, MA).” left out
as §3, with “concentration.” for “concentration. Similarly, 0.1 M potassium phosphate buffer (pH 7.4) with varying salt concent rations (0, 150, 250, 500, 1000 mM”
NaCl) was used to study ionic strength effects. The absorbance was further converted to turbidity using methods previously described 1 and data was plotted as relative turbidity. […]
Droplets were visualized in 1×PBS using NCI Leica DMC4500 microscope in reflection mode with differential interference contrast. […] Coacervate size was measured using 1 mM peptide solutions (1×PBS, pH 7.4) on a ZEN 3600 Zetasizer (Malvern Instruments, UK) using DLS-Zen 0040 specialized cuvettes. […]
Viscosity of the peptide solutions (1 mM or 2 mM) was tested using an ARES 2000ex rotational rheometer (TA Instruments, New Castle, DE). […] Viscosity was measured as a function

Compound: CN(C)CCCN1c2ccccc2Sc2ccc(Cl)cc21 [CPZ, chlorpromazine]
- effect of endocytosis inhibitor on uptake of coacervates (IL-2) [1]: did not significantly impact droplet uptake

Compound: O=C(N/N=C/c1ccc(O)c(O)c1)c1cc2ccccc2cc1O [Dyn, dynasore]
- effect of endocytosis inhibitor on uptake of coacervates (IL-2) [1]: did not significantly impact droplet uptake

Compound: Cl.N [NH4Cl, reference compound]
- DQ-OVA fluorescence intensity in DCs in the presence of inhibitor [2]: reduced

Compound: CO/C1=C\C(C)=C\[C@@H](C)[C@@H](O)[C@@H](C)C/C(C)=C/C=C/[C@H](OC)[C@@H]([C@@H](C)[C@@H](O)[C@H](C)[C@@]2(O)C[C@@H](O)[C@H](C)[C@@H](C(C)C)O2)OC1=O [bafilomycin, reference compound]
- DQ-OVA fluorescence intensity in DCs in the presence of inhibitor [2]: reduced

Compound: CC(C)C[C@H](NC(=O)[C@H](Cc1ccccc1)NC(=O)c1cnccn1)B(O)O [bortezomib]
- MHC class I presentation (IL-2 secretion) with MHC-I inhibitor [3]: significantly diminished

Compound: C[C@H]1CCC/C=C/[C@@H]2C[C@H](O)C[C@H]2[C@H](O)/C=C/C(=O)O1 [brefeldin A]
- MHC class I presentation (IL-2 secretion) with MHC-I inhibitor [3]: significantly diminished

Compound: CC(=O)N[C@@H](CSC(=O)[C@]1([C@@H](O)C(C)C)NC(=O)[C@H](C)[C@@H]1O)C(=O)O [lactacystin]
- MHC class I presentation (IL-2 secretion) with MHC-I inhibitor [3]: significantly diminished

Compound: COC[C@H]1OC(=O)c2coc3c2[C@@]1(C)C1=C(C3=O)[C@@H]2CCC(=O)[C@@]2(C)C[C@H]1OC(C)=O [wortmannin]
- effect of endocytosis inhibitor on uptake of coacervates (IL-2) [1]: most significant effect on uptake of coacervates

- coacervates at concentrations exceeding 250 mM NaCl ([4]; optical micrographs, 0.1 M potassium phosphate buffer pH 7.4, > 250 mM NaCl): no coacervates were detected
- coacervate formation ([4]; optical microscopy, 1× PBS, across multiple synthesis batches): Consistent coacervate formation
- eGFP loading efficiency [5]: ~30%
- droplet size (DLS) [6]: ~0.2 μm
- critical concentration (Ccrit) of coacervate formation [7]: 1 mM
Compound: (GHGPY)4 [GP 20]
- turbidity over time (A600) [8]: no turbidity changes were detected with time

Compound: methyl β-CD
- effect of endocytosis inhibitor on uptake of coacervates (IL-2) [1]: did not significantly impact droplet uptake
